Like-named read-outs stand apart in the source and are kept apart here.
Columns and labels:
[1] = tested on: TNFα release from THP-1 cells; experiment: TNFα release from LPS-stimulated THP-1 cells; assay type: cell-based
Text: Compounds of the invention are screened for the ability to inhibit TNFα and IL-1β release from THP-1 cells stimulated with lipopolysaccharide (LPS) in vitro. The ability of compounds to inhibit TNFα and IL-1β release in this in vitro assay is correlated with the inhibition of p38 activity and TNFα and IL-1β expression in vivo, and is therefore an indicator of potential in vivo therapeutic activity (Lee J. C. et al, Ann. N.Y. Acad. Sci. 696: 149-170, 1993 and Nature, 372: 739-746, 1994).
THP-1 cells from ATCC (TIB202) are maintained at 37° C., 5% CO2 in RPMI 1640 media (MediaTech, Herndon, Va.) containing 4.5 g/L glucose, supplemented with 10% fetal bovine serum, 1% penicillin/streptomycin and 50 μM β-mercaptoethanol.
Test compounds are initially dissolved in RPMI media with 1% DMSO (v/v). Compounds are then serially diluted in RPMI media for all subsequent dilutions. The assay is performed under sterile conditions. THP-1 cells at a culture density of 6-8×10^5 cells/ml are collected and resuspended in the RPMI media at 10^6 cells/ml. 100 μl of resuspended cells are added to each well, which contain 100 μl of a test compound. Test compounds are prepared at twice the final concentration. Final DMSO concentration is no more than 0.5% (v/v). Cells are preincubated with compound for 30 minutes at 37° C., 5% CO2 prior to stimulation with lipopolysaccharide (LPS) (Sigma L-2880, 4 mg/ml stock in PBS). The final LPS concentration in each well is 10 or 30 μg/ml for TNFα and IL-1β release, respectively. Unstimulated control cell suspensions receive PBS vehicle only. Cell mixtures are incubated for 18 or 48 hours for TNFα and IL-1β release, respectively. 150 μl of supernatants are taken and transferred to a fresh plate and stored at −20° C. until further analysis.

p38α = molecular target: T1, p38α (Homo sapiens, UniProt Q16539); experiment: p38 MAP Kinase assay, ATF2 phosphorylation (ELISA); assay type: biochemical; conditions: 40 μM ATP
T1 construct: p38 MAP Kinases are recombinant human full-length proteins with an amino-terminal GST fusion; GST (N); purchased Upstate (Charlottesville, Va.); host or cells: E. coli
Text: Compounds of the invention are screened for the ability to inhibit ATF2 phosphorylation by p38 MAP Kinase in vitro. The ability of compounds to inhibit ATF2 phosphorylation in this in vitro assay is correlated with the inhibition of p38 MAP Kinase and TNFα expression in vivo, and is therefore an indicator of potential in vivo therapeutic activity (Raingeaud, J., et al, J. Biol. Chem., 270: 7420-7426, 1995, Brinkman, M. N., et al, J. Bil. Chem. 274: 30882-30886, 1999 and Fuchs, S. Y. et al, J. Biol. Chem. 275: 12560-12564, 2000).
All kinases and the substrate ATF2 are acquired from Upstate (Charlottesville, Va.). p38 MAP Kinases are recombinant human full-length proteins with an amino-terminal GST fusion, expressed in and purified from E. coli. ATF2 is a GST fusion protein containing amino acids 19-96 of human ATF2 expressed in E. coli. All proteins were aliquoted and stored at −80° C.
p38 MAP Kinase assays are performed using an assay buffer containing 25 mM HEPES, pH 7.5, 10 mM MgCl2, 2 mM DTT, 20 mM β-glycerophosphate, 0.1 mM Na3VO4, 40 μM ATP and 1.25 μM of ATF2, together with 6 ng of p38α protein, 12 ng p38β protein, 1.5 ng p38γ, or 0.4 ng JNK2α2. Compounds are serially diluted in DMSO and 2 μL of test compound at 25× final concentration is used. The vehicle control receives DMSO only. Test compounds are pre-incubated with 20 μl of enzyme in kinase buffer (25 mM HEPES, pH 7.5, 10 mM MgCl2, 2 mM DTT, 20 mM 3-glycerophosphate and 0.1 mM Na3VO4) at room temperature for 15 minutes. […] The reactions are incubated for 30 minutes at 37° C. and terminated by the addition of 18 μl of 200 mM EDTA. An ELISA method is used to measure the phosphorylation of ATF2 at Thr 69. High binding 96-well plates (Corning 3369) are coated with 50 μl of kinase reaction for 1 hour at 37° C. The coated plates are washed with 200 μl washing buffer (25 mM Tris HCl, pH 8.3, 192 mM glycine, 0.1% SDS and 0.05% Tween-20) three times. The plates are then washed three times with SuperBlock in TBS (Pierce, 37535). After blocking, plates are incubated with 50 μl of rabbit anti-phospho-ATF2 antibody (Cell Signaling, 9221 L, 1:500) for 30 minutes at 37° C. Plates are washed three times with washing buffer prior to incubation with 50 μl HRP-conjugated goat anti-rabbit antibody (Cell Signaling, 7074, 1:500) for 30 minutes at 37° C. Plates are then washed three times with washing buffer before incubation with 50 μl of Ultra TMB-ELISA (Pierce, 34028) for 8 minutes at room temperature. Finally, 50 μl of phosphoric acid (1 M) is added to stop reactions and plate absorbance is read at 450 nm on a SpectraMax 250 plate reader.

[2] = Homo sapiens, THP-1, 18 h, LPS 10 μg/ml, 18 hours, read-out: TNFα (THP-1) IC50
[3] = LPS 10 μg/ml, 18 hours, read-out: TNFα (THP-1) IC50
[4] = Homo sapiens, THP-1, 18 h, read-out: TNFα (THP-1) IC50 (nM)

T1 sequence (Q16539 whole entry, the tested form may be a part): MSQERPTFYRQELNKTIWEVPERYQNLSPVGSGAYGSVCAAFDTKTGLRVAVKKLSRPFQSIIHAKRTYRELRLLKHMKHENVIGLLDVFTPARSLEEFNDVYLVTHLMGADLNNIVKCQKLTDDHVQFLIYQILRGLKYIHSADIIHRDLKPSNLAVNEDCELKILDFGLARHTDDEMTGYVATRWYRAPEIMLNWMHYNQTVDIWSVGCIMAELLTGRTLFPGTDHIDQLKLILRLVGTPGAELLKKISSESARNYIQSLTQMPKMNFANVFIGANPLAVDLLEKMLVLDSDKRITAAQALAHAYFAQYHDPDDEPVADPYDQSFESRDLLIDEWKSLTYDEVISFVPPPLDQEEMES

| Compound | IC50 [1, 2] [nM] | IC50 (p38α) [µM] | IC50 [1, 3] [nM] | IC50 [1, 4] [nM] |
| --- | --- | --- | --- | --- |
| CC(C)(C)OC(=O)N1CCCC1CNc1nccc(-c2c(-c3ccc(F)cc3)nc3sccn23)n1 (stereo not shown) [CCLXIV] | 27.5 | 0.00726 |  |  |
| CS(=O)(=O)N1CCC(Nc2nccc(-c3c(-c4ccc(F)cc4)nc4sccn34)n2)CC1 [CCLXI] | 3.08 | 0.00131 |  |  |
| CC(C)[C@@H](CO)Nc1nccc(-c2c(-c3ccc(Br)cc3)nc3sccn23)n1 [CCLXXI] |  | 0.0757 | 100 |  |
| Cc1ccc(-c2nc3sccn3c2-c2ccnc(N[C@H](CO)C(C)C)n2)cc1 [CCLXXVII] |  | 0.147 | 58.7 |  |
| CC(C)[C@@H](CO)Nc1nccc(-c2c(-c3ccc(F)c(F)c3)nc3sccn23)n1 [CCLXXV] |  | 0.191 | 43.3 |  |
| CC(C)(C)OC(=O)N1CCC(Nc2nccc(-c3c(-c4ccc(F)cc4F)nc4occn34)n2)CC1 [CCLXXXIII] | 52.7 | 0.0011 |  |  |
| CN(C)CC(C)(C)CNc1nccc(-c2c(-c3ccccc3Cl)nc3occn23)n1 [CCLXXXII] | 88.4 | 0.0448 |  |  |
| CC(C)(C)OC(=O)N1CCC(Nc2nccc(-c3c(-c4ccc(F)cc4Cl)nc4occn34)n2)CC1 [CCLXXXIV] | 96.2 | 0.0014 |  |  |
| Fc1ccc(-c2nc3occn3c2-c2ccnc(N[C@@H]3CN4CCC3CC4)n2)c(F)c1 [CCLXXXIX] |  | 0.0013 |  | 3.2 |
| Cc1ccccc1-c1nc2occn2c1-c1ccnc(NC2CCN(C(=O)OC(C)(C)C)CC2)n1 [CCLXXXVIII] | 211 | 0.0048 |  |  |
| CC(C)(C)OC(=O)N1CCC(Nc2nccc(-c3c(-c4ccccc4Cl)nc4occn34)n2)CC1 [CCLXXXVII] | 170 | 0.0082 |  |  |
| Fc1ccc(-c2nc3occn3c2-c2ccnc(NC3CCNCC3)n2)c(Cl)c1 [CCLXXXVI] | 67.3 | 0.007 |  |  |
| Fc1ccc(-c2nc3occn3c2-c2ccnc(NC3CCNCC3)n2)c(F)c1 [CCLXXXV] | 9.9 | 0.0033 |  |  |
| COc1cccc(-c2nc3sccn3c2-c2ccnc(N[C@H](CO)C(C)C)n2)c1 [CCLXX] |  | 0.112 | 93.5 |  |
| CC(C)(Nc1nccc(-c2c(-c3ccc(F)cc3)nc3sccn23)n1)C(O)c1ccccc1 (stereo not shown) [CCLX] | 213 | 0.03 |  |  |
| OC1(CNc2nccc(-c3c(-c4ccc(F)cc4)nc4sccn34)n2)CCCCC1 [CCL] | 15.5 | 0.0272 |  |  |
| CC(C)[C@@H](CO)Nc1nccc(-c2c(-c3ccc(F)c(F)c3)nc3sccn23)n1 [CCVII] | 43.4 | 0.191 |  |  |
| FC(F)(F)c1cccc(-c2nc3occn3c2-c2ccnc(N[C@@H]3CN4CCC3CC4)n2)c1 [CCXCIII] | 172 | 0.0049 |  |  |
| Cc1ccccc1-c1nc2occn2c1-c1ccnc(N[C@@H]2CN3CCC2CC3)n1 [CCXCII] |  | 0.0163 |  | 47.8 |
| FC(F)(F)c1cccc(-c2nc3occn3c2-c2ccnc(N[C@H]3CN4CCC3CC4)n2)c1 [CCXCIV] | 90 | 0.0164 |  |  |
| CN(C)CC(C)(C)CNc1nccc(-c2c(-c3ccc(F)cc3F)nc3occn23)n1 [CCXCIX] | 17.8 | 0.0061 |  |  |
| Clc1ccccc1-c1nc2occn2c1-c1ccnc(N[C@@H]2CN3CCC2CC3)n1 [CCXCI] |  | 0.0112 |  | 77 |

| Compound | IC50 [1, 2] [nM] | IC50 (p38α) [µM] | IC50 [1, 3] [nM] | IC50 [1, 4] [nM] |
| --- | --- | --- | --- | --- |
| Cc1ccccc1-c1nc2occn2c1-c1ccnc(NCC(C)(C)CN(C)C)n1 [CCXCVIII] | 85.1 | 0.0522 |  |  |
| CN1[C@@H]2CC[C@H]1C[C@@H](Nc1nccc(-c3c(-c4ccccc4Cl)nc4occn34)n1)C2 [CCXCVII] |  | 0.0068 |  | 24.4 |
| CN1[C@@H]2CC[C@H]1C[C@@H](Nc1nccc(-c3c(-c4ccc(F)cc4Cl)nc4occn34)n1)C2 [CCXCVI] |  | 0.0036 |  | 15.5 |
| Fc1ccc(-c2nc3occn3c2-c2ccnc(N[C@H]3CN4CCC3CC4)n2)c(Cl)c1 [CCXCV] | 8.7 | 0.0097 |  |  |
| CN(C)CC(C)(C)CNc1nccc(-c2c(-c3ccc(F)cc3Cl)nc3occn23)n1 [CCXCX] | 78.2 | 0.0203 |  |  |
| Fc1ccc(-c2nc3occn3c2-c2ccnc(N[C@@H]3CN4CCC3CC4)n2)c(Cl)c1 [CCXC] | 72 | 0.0068 |  |  |
| Fc1ccc(-c2nc3sccn3c2-c2ccnc(NCC3CC3)n2)cc1 [CCXIII] | 5.63 | 0.0133 |  |  |
| Oc1ccc(C(O)CNc2nccc(-c3c(-c4ccc(F)cc4)nc4sccn34)n2)cc1 (stereo not shown) [CCXII] | 24.1 | 0.00881 |  |  |
| C[C@H](O)CNc1nccc(-c2c(-c3ccc(F)cc3)nc3sccn23)n1 [CCXIV] | 5.03 | 0.0121 |  |  |
| CC[C@@H](CO)Nc1nccc(-c2c(-c3ccc(F)cc3)nc3sccn23)n1 [CCXIX] | 6.84 | 0.00303 |  |  |
| Cc1ccc(-c2nc3sccn3c2-c2ccnc(N[C@H](CO)C(C)C)n2)cc1 [CCXI] | 58.9 | 0.147 |  |  |
| Nc1ccc(CCNc2nccc(-c3c(-c4ccc(F)cc4)nc4sccn34)n2)cc1 [CCXLIII] | 19.5 | 0.00219 |  |  |
| CCC(O)CNc1nccc(-c2c(-c3ccc(F)cc3)nc3sccn23)n1 (stereo not shown) [CCXLII] | 3.83 | 0.00328 |  |  |
| CN(C)CC(C)(C)CNc1nccc(-c2c(-c3ccc(F)cc3)nc3sccn23)n1 [CCXLIV] | 5.98 | 0.0114 |  |  |
| Fc1ccc(-c2nc3sccn3c2-c2ccnc(NCCN3CCOCC3)n2)cc1 [CCXLIX] | 20.3 | 0.0316 |  |  |
| CC(C)(CO)Nc1nccc(-c2c(-c3ccc(F)cc3)nc3sccn23)n1 [CCXLI] | 5.18 | 0.00281 |  |  |
| OC1(CNc2nccc(-c3c(-c4ccc(F)cc4)nc4sccn34)n2)CCCc2ccccc21 (stereo not shown) [CCXLVIII] | 20.8 | 0.00839 |  |  |
| Fc1ccc(CCNc2nccc(-c3c(-c4ccc(F)cc4)nc4sccn34)n2)cc1 [CCXLVII] | 33.2 | 0.00484 |  |  |
| Oc1cccc(C(O)CNc2nccc(-c3c(-c4ccc(F)cc4)nc4sccn34)n2)c1 (stereo not shown) [CCXLVI] | 23.9 | 0.00306 |  |  |
| Fc1ccc(-c2nc3sccn3c2-c2ccnc(NCCN3CCCCC3)n2)cc1 [CCXLV] | 14.2 | 0.0821 |  |  |
| Fc1ccc(-c2nc3sccn3c2-c2ccnc(NCc3nc4ccccc4[nH]3)n2)cc1 [CCXL] | 3300 | 0.135 |  |  |
| Fc1ccc(-c2nc3sccn3c2-c2ccnc(NCCc3ccncc3)n2)cc1 [CCXVIII] | 4.46 | 0.00587 |  |  |
